Laboratory results published in US20190290694A1, “STABLY ENGINEREED PROTEASOME INHIBITOR RESISTANT IMMUNE CELLS FOR IMMUNOTHERAPY” (CELLECTIS, priority 2016, published 2019).

What was measured:
primary T cell = experiment: Bortezomib dose response, viability of primary T cells by flow cytometry (live dead cell marker); format: cell-based; settings: Homo sapiens, cultured for 48h with bortezomib, FIG. 1A, read-out: EC50 of Bortezomib (cell depletion / viability)
Description: (§1) Peripheral blood mononuclear cells (PBMC) were obtained from healthy volunteer donors as described by Schwartz J. et al. (Guidelines on the use of therapeutic apheresis in clinical practice-evidence-based approach from the Writing Committee of the American Society for Apheresis: the sixth special issue (2013) J Clin Apher. 28(3):145-284).
(§2) To investigate whether bortezomib treatment modify the survival of primary cells, frozen PBMCs were thawed and activated using Dynabeads human T activator CD3/CD28. 3 days after their activation, 1 million cells were transduced using a CD123 CAR (specific for CD123) at a MOI of 5. Cells were then immediately diluted in X-Vivo-15 media supplemented by 20 ng/ml IL-2 and 5% human serum AB and diluted at 1×10^6 cells/ml and kept in culture at 37° C. in the presence of 5% CO2. […] At the end of the culture cell viability was assessed by flow cytometry using a live dead cell marker.

[1] = system: primary CAR T-cell (CAR anti-CD123); experiment: Bortezomib dose response, viability of primary CAR T-cells (CAR anti-CD123) by flow cytometry; format: cell-based, human
Description: as §1
To investigate whether bortezomib treatment modify the survival of primary cells, frozen PBMCs were thawed and activated using Dynabeads human T activator CD3/CD28. 3 days after their activation, 1 million cells were transduced using a CD123 CAR (specific for CD123) at a MOI of 5. Cells were then immediately diluted in X-Vivo-15 media supplemented by 20 ng/ml IL-2 and 5% human serum AB and diluted at 1×10^6 cells/ml and kept in culture at 37° C. in the presence of 5% CO2. 7 days later, T cells, CART cells and MOLM13 cells were cultured for 48h in the presence of bortezomib increasing doses of bortezomib ranging from 0 nM to […]. At the end of the culture cell viability was assessed by flow cytometry using a live dead cell marker.
To investigate whether overexpressing POMP, PSMB5 or mutated PSMB5 on CART cells confers resistance to bortezomib treatment, T-cells frozen PBMCs were thawed and activated using Dynabeads human T activator CD3/CD28. […] At the end of the culture cell viability was assessed by flow cytometry using a live dead cell marker.

MOLM13 cell line = experiment: Bortezomib dose response, viability of MOLM13 cells by flow cytometry; format: cell-based; settings: Homo sapiens, MOLM-13, cultured for 48h with bortezomib, FIG. 1C, read-out: EC50 of Bortezomib (cell depletion / viability)
Description: as §2

[2] = system: CART cells that express PSMB5; experiment: Bortezomib dose response, viability of CART cells coexpressing PSMB5; format: cell-based, human; settings: CART cells that express PSMB5 as compared to WT CART cells and NT cells, 48h, FIG. 4
Description: (§3) To investigate whether overexpressing POMP, PSMB5 or mutated PSMB5 on CART cells confers resistance to bortezomib treatment, T-cells frozen PBMCs were thawed and activated using Dynabeads human T activator CD3/CD28. 3 days after their activation 1 million T-cells were transduced or not using the CD123 CAR and one of the ORF at a MOI of 5 for both lentiviral particles. Cells were then immediately diluted in X-Vivo-15 media supplemented by 20 ng/ml IL-2 and 5% human serum AB and diluted at 1×10^6 cells/ml and kept in culture at 37° C. in the presence of 5% CO2. 7 days later, T cells, CART cells and MOLM13 cells were cultured for 48h in the presence of increasing doses of bortezomib ranging from 0 to 100 μM. At the end of the culture cell viability was assessed by flow cytometry using a live dead cell marker.

[3] = system: CART cells that express mutated PSMB5; experiment: Bortezomib dose response, viability of CART cells coexpressing mutated PSMB5; format: cell-based, human; settings: CART cells that express mutated PSMB5 as compared to WT CART cells and NT cells, 48h, FIG. 4
Description: as §3

[4] = system: GECKO-transduced primary T-cells; experiment: Puromycine resistance test of mock- and GECKO-transduced primary T-cells (viability by flow cytometry); format: cell-based, human; parameters: dose or concentration left out as unconfirmed; settings: GECKO-transduced versus mock T-cells, 3 days, simultaneous activation/transduction, FIG. 5
Description: Peripheral blood mononuclear cells (PBMC) were obtained from healthy volunteer donors and T-lymphocytes were purified using the EasySep human T-cell enrichment kit (Stemcell Technologies). By contrast with the GECKO protocol described by Shalem et al., primary T-cells were activated and immediately transduced with the viral particles. The T-cells were first mixed with dynabeads (25 uL/10^6 T-cells) in Xvivo-15 media and then plated on 12 well plates coated by 30 ug/mL retronectin per well (iml of retronectin per well incubated 1 hour at 37° C. followed by a washing steps using 1 ml of PBS 2% FBS) in a total volume of 400 μL. The mixture was supplemented by either 200 μL of GECKO lentiviral particles or 200 μL of Xvivo-15 media and incubated 2H at 37° C. and 5% CO2. The mixture was then supplemented by 600 μL of Xvivo-15 media, 10% AB serum and 40 ng/mL IL2 and incubated overnight at 37° C. with 5% CO2. Cells were then washed with 1.5 ml of Xvivo-15 media and resuspended in Xvivo-15 media, 5% AB serum, 20 ng/mL IL-2 in 6 wells plate at 10^6 cells/mL.
3 days post transduction, cells were recovered and used to perform a puromycine resistance test. […] FIG. 2 illustrates the puromycine sensitivity pattern of mock- and GECKO-transduced primary T-cells determined by flow cytometry. […] Cells are then recovered, labeled using EFluor780 dye and analyzed by flow cytometry to determine their viability. […]

| SMILES | EC50 (primary T cell) [nM] | EC50 of bortezomib, change ([1]; CART cells as compared to non-transduced cells, 48h, FIG. 4) | EC50 ([1]; Homo sapiens, T-cell, primary CART cells (CD123 CAR), cultured for 48h with bortezomib, FIG. 1B, read-out: EC50 of Bortezomib (cell depletion / viability)) [nM] | EC50 (MOLM13 cell line) [nM] | EC50 of bortezomib, change [2] | EC50 of bortezomib, change [3] | puromycine sensitivity (viability frequency) [4] |
| --- | --- | --- | --- | --- | --- | --- | --- |
| CC(C)C[C@H](NC(=O)[C@H](Cc1ccccc1)NC(=O)c1cnccn1)B(O)O [bortezomib] | ~10 | increased | ~10 | ~10 | increased | increased | – |
| COc1ccc(C[C@H](N)C(=O)N[C@H]2[C@@H](O)[C@H](n3cnc4c(N(C)C)ncnc43)O[C@@H]2CO)cc1 [puromycine] | – | – | – | – | – | – | more resistance |
